The source of these data is EP0306300B1, “Pyrrolo(1,2-a)imidazole and imidazo(1,2-a)pyridine derivatives and their use as 5-lipoxygenase pathway inhibitors” (SMITHKLINE BEECHAM CORPORATION, priority 1987, dated 1989).

Data set [1] concerns cynomolgus monkeys. Briefly: CNS activity / oral toxicity in cynomolgus monkeys. The note with it: cynomolgus monkey, in vivo. As for the experimental part:
Additional monkeys tolerated repeated doses of 45 mg/kg or 30 mg/kg and one animal tolerated an escalating dose schedule of 30-90-120 mg/kg.
The two monkeys administered 400 mg/kg were repeatedly administered this dose for 7 consecutive days; each animal experienced emesis within 1 to 5 hours of dosing after the 1st, 3rd and 4th doses, whereas only the female experienced emesis after the 5th, 6th and 7th doses. A complete necropsy, serum clinical chemistry, hematology and histological examination was completed on both monkeys.

Data set [2] can be described thus: Cytochrome P-450 inhibition (ethoxycoumarin-O-deethylase activity, phenobarbital-induced microsomes). Particulars: rat.
Data set [3] relates to cynomolgus monkeys. Briefly: CNS activity / oral toxicity in cynomolgus monkeys. Type of data set: in vivo.
The nature of data set [4]: Log D determination by high pressure liquid chromatography. It is filed as physicochemical. Particulars: hplc ods, mobile phase MeOH:H2O, pH 7.4, read-out: (Log D) (Lipophilicity). As for the experimental part: The procedure used to determine the log D's listed on Table VI was as follows. A 20 »l sample was injected into a Shandon Hypersil ODS, 5» (100 mm x 4.6 mm ID) column and was eluted using a mobile phase of […] MeOH:H₂O (The aqueous portion was .01 M in KH₂PO₄ and adjusted to pH 7.4 with KOH after mixing the MeOH), at a flow rate of 2 ml per minute. Eluting peaks were detected by UV absorbance at […]. All samples were made up at 0.1 mg/ml. (Retentions were identical at 0.01 mg/ml.)
The data was analyzed by determining the regression line corresponding to the log k′ vs. literature log P of the reference standards.
The reference standards and their literature log P's included NaNO₂, 0.0; acetanalide, 1.16; acetophenone, 1.66; anisole, 2.08; chlorobenzene, 2.84; benzophenone, 3.18; anthracene, 4.45; and pentachlorobenzene, 5.12.

In data set [5] the test system is arachidonic acid-induced edema in mice. Briefly: Arachidonic acid-induced mouse ear inflammation (ear swelling). The note with it: mouse, po; read-out: AAEE(MOUSE ED50 mg/kg (po)). It is filed as in vivo, male Balb/c mice. The protocol:
In the tests used to determine activity as 5-lipoxygenase pathway inhibitors, male Balb/c mice (20-28 g), were used. All mice were obtained from Charles River Breeding Laboratories, Kingston, N.Y. Within a single experiment, mice were age matched.
Reagents were employed as follows: Compounds of Formula (I) were each used as the free base. The compounds were homogenized in 0.5% tragacanth. Compounds were administered by […] at the indicated dose in a final volume of 10 ml/kg.
Arachidonic acid in acetone (2 mg/20 »l) was applied to the inner surface of the left ear. The thickness of both ears was then measured with a dial micrometer one hour after treatment, and the data were expressed as the change in thickness (10⁻³ cm) between treated and untreated ears.
Test compounds were given orally in acid/saline at the times indicated in the text prior to the topical application of arachidonic acid.
Dermatol., 82, 367-371 (1984)].

[6] abbreviates: cynomolgus monkey, in vivo, po, 60 mg/kg.

One may read the IC50 as the concentration that gives 50% inhibition.

Turning to `COc1ccc(-c2nc3n(c2-c2ccncc2)CCC3)cc1` [Compound C, 2-(4-methoxyphenyl)-3-(4-pyridyl)-6,7-dihydro-[5H]-pyrrolo[1,2-a]imidazole], in the data set with cynomolgus monkeys [1], the “Adverse CNS activity” value was “+++”. In addition, in data set [2] (liver microsomes), the IC50 is 21400 nM. Moreover, the clinical effects entry with cynomolgus monkeys [3] (setting [6]) was “sedation, loss of consciousness and death of one (male)”; in the data set with cynomolgus monkeys [3] (cynomolgus monkey, in vivo, po, 90 mg/kg), “death of both animals”; in the data set with cynomolgus monkeys [3] (single oral dose of 90 mg/kg, 1 female, 1 male, 90 mg/kg) it was “caused convulsions and death”. In addition, in the data set on cynomolgus monkeys [3] (setting [6]), the “time of death after dosing” value is at most 1 h. Besides, in data set [4], the chromatographic logD came to 2.14. In addition, the ED50 in data set [5] was 28 mg/kg.

Turning to `Fc1ccc(-c2nc3n(c2-c2ccncc2)CCS3)cc1` [Compound A, 5-(4-pyridyl)-6-(4-fluorophenyl)-2,3-dihydroimidazo[2,1-b]thiazole], in the data set on cynomolgus monkeys [1], the “Adverse CNS activity” value is on record as “+++”. Moreover, the IC50 in data set [2] (liver microsomes) was 600 nM; in data set [2] (microsomes), 900 nM. For the same compound, in the data set with cynomolgus monkeys [3] (cynomolgus monkey, in vivo, 90 mg/kg), the “time of death after dosing” value was in the range of 1 to 5 h. In the data set with cynomolgus monkeys [3] (oral 90 mg/kg/day, two consecutive days, 1 female, 1 male, 90 mg/kg/day), the clinical effects entry is “caused convulsions and death”. In data set [4], the chromatographic logD came to 2.19. In addition, the ED50 in data set [5] turned out to be 27 mg/kg.

Take `[O-][S+]1CCn2c1nc(-c1ccc(F)cc1)c2-c1ccncc1` (stereo not drawn) [B, 5-(4-pyridyl)-6-(4-fluorophenyl)-2,3-dihydroimidazo [2,1-b]thiazole oxide, reference compound]: the “CNS toxicity / adverse CNS effects (comparative statement)” value with cynomolgus monkeys [1] is listed as “reduced CNS toxicity”. The IC50 in data set [2] (liver microsomes) stood at 5000 nM. Further, the chromatographic logD in data set [4] is 1.2.
